Tests used:
[1] = biological target: Ribosomal protein S6 kinase alpha-3 (Homo sapiens) (UniProt P51812); experiment: Inhibition of RSK2 at 1 uM
[2] = biological target: Ribosomal protein S6 kinase alpha-2 (Homo sapiens) (UniProt Q15349); experiment: Inhibition of RSK3 at 1 uM
[3] = biological target: Serine/threonine-protein kinase Sgk1 (Homo sapiens) (UniProt O00141); experiment: Inhibition of SGK1 at 1 uM
[4] = biological target: Serine/threonine-protein kinase Sgk2 (Homo sapiens) (UniProt Q9HBY8); experiment: Inhibition of SGK2 at 1 uM
[5] = biological target: Serine/threonine-protein kinase Sgk3 (Homo sapiens) (UniProt Q96BR1); experiment: Inhibition of SGK3 at 1 uM
[6] = biological target: Angiopoietin-1 receptor (Homo sapiens) (UniProt Q02763); experiment: Inhibition of TIE2 at 1 uM
[7] = biological target: Testis-specific serine/threonine-protein kinase 2 (Homo sapiens) (UniProt Q96PF2); experiment: Inhibition of TSSK2 at 1 uM
[8] = Half life in mouse at 33 mg/kg, po; type: ADME, organism-based; design: dose 33 mg/kg, route oral; conditions: in vivo
[9] = Plasma concentration in mouse at 33 mg/kg, po after 4 hrs; type: ADME, organism-based; design: dose 33 mg/kg, route oral
[10] = biological target: Mitogen-activated protein kinase 10 (Homo sapiens, UniProt P53779); experiment: Inhibition of JNK3
[11] = biological target: Proto-oncogene tyrosine-protein kinase Src (Homo sapiens, UniProt P12931); experiment: Inhibition of SRC
[12] = biological target: Tyrosine-protein kinase JAK2 (Homo sapiens, UniProt O60674); experiment: Inhibition of JAK2
[13] = biological target: Tyrosine-protein kinase JAK3 (Homo sapiens, UniProt P52333); experiment: Inhibition of JAK3
[14] = biological target: Hepatocyte growth factor receptor (Homo sapiens, UniProt P08581); experiment: Inhibition of MET
[15] = biological target: Vascular endothelial growth factor receptor 2 (Homo sapiens, UniProt P35968); experiment: Inhibition of KDR
[16] = biological target: Mitogen-activated protein kinase kinase kinase 8 (Homo sapiens, UniProt P41279); experiment: Inhibition of COT
[17] = biological target: Mitogen-activated protein kinase kinase kinase 3 (Homo sapiens, UniProt Q99759); experiment: Inhibition of MEKK3
[18] = biological target: Tyrosine-protein kinase ZAP-70 (Homo sapiens, UniProt P43403); experiment: Inhibition of ZAP70
[19] = biological target: RAC-alpha serine/threonine-protein kinase (Homo sapiens) (UniProt P31749); experiment: Inhibition of AKT1 at 1 uM
[20] = biological target: RAC-gamma serine/threonine-protein kinase (Homo sapiens, UniProt Q9Y243); experiment: Inhibition of AKT3 at 1 uM
[21] = biological target: Tyrosine-protein kinase BTK (Homo sapiens) (UniProt Q06187); experiment: Inhibition of BTK at 1 uM
[22] = biological target: Calcium/calmodulin-dependent protein kinase type IV (Homo sapiens) (UniProt Q16566); experiment: Inhibition of CAMK4 at 2 uM
[23] = biological target: Casein kinase I isoform alpha (Homo sapiens) (UniProt P48729); experiment: Inhibition of CK1 at 2 uM
[24] = Inhibition of CK2 at 2 uM
[25] = biological target: Epidermal growth factor receptor (Homo sapiens) (UniProt P00533); experiment: Inhibition of EGFR at 1 uM
[26] = biological target: Ephrin type-B receptor 4 (Homo sapiens) (UniProt P54760); experiment: Inhibition of EPH-B4 at 1 uM
[27] = biological target: Fibroblast growth factor receptor 1 (Homo sapiens) (UniProt P11362); experiment: Inhibition of FGFR1 at 1 uM
[28] = biological target: Macrophage colony-stimulating factor 1 receptor (Homo sapiens) (UniProt P07333); experiment: Inhibition of FMS at 1 uM
[29] = biological target: Tyrosine-protein kinase Fyn (Homo sapiens) (UniProt P06241); experiment: Inhibition of FYN at 2 uM
[30] = biological target: Insulin receptor-related protein (Homo sapiens) (UniProt P14616); experiment: Inhibition of IRR at 1 uM
[31] = biological target: Mitogen-activated protein kinase 8 (Homo sapiens) (UniProt P45983); experiment: Inhibition of JNK1 at 2 uM
[32] = biological target: Mast/stem cell growth factor receptor Kit (Homo sapiens) (UniProt P10721); experiment: Inhibition of KIT at 1 uM
[33] = biological target: Mitogen-activated protein kinase kinase kinase kinase 4 (Homo sapiens) (UniProt O95819); experiment: Inhibition of MAP4K4 at 1 uM
[34] = biological target: MAP kinase-activated protein kinase 2 (Homo sapiens) (UniProt P49137); experiment: Inhibition of MAPKAPK-2 at 1 uM
[35] = biological target: Dual specificity mitogen-activated protein kinase kinase 6 (Homo sapiens) (UniProt P52564); experiment: Inhibition of MKK6 at 2 uM
[36] = biological target: Serine/threonine-protein kinase 4 (Homo sapiens) (UniProt Q13043); experiment: Inhibition of MST1 at 1 uM
[37] = biological target: Serine/threonine-protein kinase Nek1 (Homo sapiens) (UniProt Q96PY6); experiment: Inhibition of NEK1 at 1 uM
[38] = biological target: Mitogen-activated protein kinase 11 (Homo sapiens) (UniProt Q15759); experiment: Inhibition of P38beta at 2 uM
[39] = biological target: Serine/threonine-protein kinase PAK 3 (Homo sapiens) (UniProt O75914); experiment: Inhibition of PAK3 at 1 uM
[40] = biological target: PAS domain-containing serine/threonine-protein kinase (Homo sapiens) (UniProt Q96RG2); experiment: Inhibition of PASK at 1 uM
[41] = biological target: Protein kinase C alpha type (Homo sapiens) (UniProt P17252); experiment: Inhibition of PKCalpha at 2 uM
[42] = biological target: Protein kinase C gamma type (Homo sapiens) (UniProt P05129); experiment: Inhibition of PKCgamma at 2 uM
[43] = biological target: Serine/threonine-protein kinase N2 (Homo sapiens) (UniProt Q16513); experiment: Inhibition of PRK2 at 2 uM
[44] = biological target: Serine/threonine-protein kinase D1 (Homo sapiens) (UniProt Q15139); experiment: Inhibition of PRKD1 at 1 uM
[45] = biological target: cAMP-dependent protein kinase catalytic subunit PRKX (Homo sapiens) (UniProt P51817); experiment: Inhibition of PRKX at 1 uM
[46] = biological target: RAF proto-oncogene serine/threonine-protein kinase (Homo sapiens) (UniProt P04049); experiment: Inhibition of cRAF at 2 uM
[47] = biological target: Proto-oncogene tyrosine-protein kinase receptor Ret (Homo sapiens) (UniProt P07949); experiment: Inhibition of RET at 1 uM
[48] = biological target: Rho-associated protein kinase 2 (Homo sapiens) (UniProt O75116); experiment: Inhibition of ROCK 2 at 2 uM
[49] = Inhibition of GSK3
[50] = Plasma concentration in rat at 3 mg/kg, iv after 4 hrs; type: ADME, organism-based; design: dose 3 mg/kg, route intravenous
[51] = Half life in mouse at 5 mg/kg, iv; type: ADME, organism-based; design: dose 5 mg/kg, route intravenous; conditions: in vivo
[52] = Oral bioavailability in mouse at 33 mg/kg; type: ADME, organism-based; conditions: in vivo
[53] = biological target: Dual specificity protein kinase CLK3 (Homo sapiens) (UniProt P49761); conditions: 1 uM
Chain of Dual specificity protein kinase CLK3 (Homo sapiens) (P49761 whole entry, looked up): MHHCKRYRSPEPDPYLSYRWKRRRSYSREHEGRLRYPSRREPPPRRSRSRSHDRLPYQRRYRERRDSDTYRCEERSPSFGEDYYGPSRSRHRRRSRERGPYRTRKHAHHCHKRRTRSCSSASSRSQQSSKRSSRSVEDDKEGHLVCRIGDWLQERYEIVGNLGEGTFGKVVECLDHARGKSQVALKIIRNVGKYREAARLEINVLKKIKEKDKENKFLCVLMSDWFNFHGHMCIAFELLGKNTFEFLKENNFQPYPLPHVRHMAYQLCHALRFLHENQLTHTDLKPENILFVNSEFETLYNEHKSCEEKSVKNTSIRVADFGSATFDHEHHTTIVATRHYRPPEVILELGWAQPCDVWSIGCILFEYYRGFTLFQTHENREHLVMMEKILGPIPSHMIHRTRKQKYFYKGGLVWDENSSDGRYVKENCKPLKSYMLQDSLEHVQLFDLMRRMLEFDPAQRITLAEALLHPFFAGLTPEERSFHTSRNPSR
Description: Inhibition of CLK3 at 1 uM

Chain of Mitogen-activated protein kinase kinase kinase 3 (Q99759 whole entry): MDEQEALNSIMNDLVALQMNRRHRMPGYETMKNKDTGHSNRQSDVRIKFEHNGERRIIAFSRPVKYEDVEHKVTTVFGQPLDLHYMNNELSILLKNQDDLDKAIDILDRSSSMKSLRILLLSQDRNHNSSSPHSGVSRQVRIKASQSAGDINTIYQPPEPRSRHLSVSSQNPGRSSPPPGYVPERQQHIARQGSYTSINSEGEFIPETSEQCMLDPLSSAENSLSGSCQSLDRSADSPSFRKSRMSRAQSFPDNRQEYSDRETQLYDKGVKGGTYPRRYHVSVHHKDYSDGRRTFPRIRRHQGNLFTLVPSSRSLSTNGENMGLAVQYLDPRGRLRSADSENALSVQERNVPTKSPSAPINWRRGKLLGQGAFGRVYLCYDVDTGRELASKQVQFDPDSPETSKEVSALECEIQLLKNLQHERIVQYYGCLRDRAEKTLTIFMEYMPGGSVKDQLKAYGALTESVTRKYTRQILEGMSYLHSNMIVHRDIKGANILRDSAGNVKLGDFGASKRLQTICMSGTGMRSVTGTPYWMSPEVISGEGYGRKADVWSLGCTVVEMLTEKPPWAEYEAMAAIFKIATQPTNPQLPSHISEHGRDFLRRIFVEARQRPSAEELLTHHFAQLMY
Chain of Tyrosine-protein kinase ZAP-70 (P43403 whole entry): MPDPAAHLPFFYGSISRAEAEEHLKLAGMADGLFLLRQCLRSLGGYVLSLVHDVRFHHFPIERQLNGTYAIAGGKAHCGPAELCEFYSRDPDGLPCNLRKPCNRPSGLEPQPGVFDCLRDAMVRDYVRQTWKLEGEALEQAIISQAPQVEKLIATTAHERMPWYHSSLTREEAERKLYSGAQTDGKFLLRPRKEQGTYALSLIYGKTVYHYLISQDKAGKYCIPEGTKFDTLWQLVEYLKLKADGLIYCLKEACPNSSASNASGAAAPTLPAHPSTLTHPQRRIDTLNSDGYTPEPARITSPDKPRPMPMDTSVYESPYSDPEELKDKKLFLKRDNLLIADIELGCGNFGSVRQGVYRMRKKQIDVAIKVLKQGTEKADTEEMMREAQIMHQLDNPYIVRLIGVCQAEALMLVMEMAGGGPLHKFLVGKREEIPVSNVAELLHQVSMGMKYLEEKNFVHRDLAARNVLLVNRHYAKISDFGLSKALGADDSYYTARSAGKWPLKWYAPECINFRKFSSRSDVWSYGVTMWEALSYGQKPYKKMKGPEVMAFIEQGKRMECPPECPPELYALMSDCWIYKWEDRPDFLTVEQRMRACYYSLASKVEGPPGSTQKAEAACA
Chain of Casein kinase I isoform alpha (Homo sapiens) (P48729 2-337 limits assumed): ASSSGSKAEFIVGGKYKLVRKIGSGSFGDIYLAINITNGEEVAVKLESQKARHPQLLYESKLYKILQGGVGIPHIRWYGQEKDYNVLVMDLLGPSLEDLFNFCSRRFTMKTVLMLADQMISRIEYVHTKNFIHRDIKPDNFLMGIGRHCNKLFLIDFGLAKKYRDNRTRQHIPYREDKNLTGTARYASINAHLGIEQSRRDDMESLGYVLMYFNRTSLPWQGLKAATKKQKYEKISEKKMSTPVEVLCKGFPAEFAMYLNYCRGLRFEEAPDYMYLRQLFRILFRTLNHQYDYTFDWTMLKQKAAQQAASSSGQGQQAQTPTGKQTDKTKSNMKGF
Chain of Ephrin type-B receptor 4 (Homo sapiens) (P54760 whole entry): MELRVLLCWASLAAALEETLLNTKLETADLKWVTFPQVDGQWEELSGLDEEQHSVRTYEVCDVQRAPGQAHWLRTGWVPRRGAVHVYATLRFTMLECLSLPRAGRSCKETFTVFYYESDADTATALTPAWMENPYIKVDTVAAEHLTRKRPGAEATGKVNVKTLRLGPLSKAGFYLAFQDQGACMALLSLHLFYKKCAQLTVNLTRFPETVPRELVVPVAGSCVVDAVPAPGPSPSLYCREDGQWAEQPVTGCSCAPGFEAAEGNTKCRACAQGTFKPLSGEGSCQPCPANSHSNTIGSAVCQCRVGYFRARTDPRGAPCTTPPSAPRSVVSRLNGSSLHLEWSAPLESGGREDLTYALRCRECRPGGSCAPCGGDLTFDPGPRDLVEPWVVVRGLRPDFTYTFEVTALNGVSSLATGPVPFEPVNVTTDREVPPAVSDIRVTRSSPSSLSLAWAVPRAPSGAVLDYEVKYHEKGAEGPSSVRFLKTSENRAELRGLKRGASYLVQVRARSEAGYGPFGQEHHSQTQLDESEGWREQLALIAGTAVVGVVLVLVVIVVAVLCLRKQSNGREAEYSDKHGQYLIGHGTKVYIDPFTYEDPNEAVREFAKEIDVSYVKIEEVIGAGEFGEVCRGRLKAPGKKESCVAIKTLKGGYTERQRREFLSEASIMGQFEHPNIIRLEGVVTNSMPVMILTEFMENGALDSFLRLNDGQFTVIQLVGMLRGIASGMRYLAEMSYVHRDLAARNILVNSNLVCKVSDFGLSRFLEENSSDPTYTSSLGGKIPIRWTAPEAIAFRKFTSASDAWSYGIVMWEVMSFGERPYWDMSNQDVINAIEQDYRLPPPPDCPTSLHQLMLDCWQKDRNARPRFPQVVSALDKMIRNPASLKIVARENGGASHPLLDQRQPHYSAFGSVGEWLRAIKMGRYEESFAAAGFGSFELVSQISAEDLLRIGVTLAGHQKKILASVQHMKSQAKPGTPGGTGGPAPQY
Chain of Serine/threonine-protein kinase Sgk1 (Homo sapiens) (O00141 whole entry): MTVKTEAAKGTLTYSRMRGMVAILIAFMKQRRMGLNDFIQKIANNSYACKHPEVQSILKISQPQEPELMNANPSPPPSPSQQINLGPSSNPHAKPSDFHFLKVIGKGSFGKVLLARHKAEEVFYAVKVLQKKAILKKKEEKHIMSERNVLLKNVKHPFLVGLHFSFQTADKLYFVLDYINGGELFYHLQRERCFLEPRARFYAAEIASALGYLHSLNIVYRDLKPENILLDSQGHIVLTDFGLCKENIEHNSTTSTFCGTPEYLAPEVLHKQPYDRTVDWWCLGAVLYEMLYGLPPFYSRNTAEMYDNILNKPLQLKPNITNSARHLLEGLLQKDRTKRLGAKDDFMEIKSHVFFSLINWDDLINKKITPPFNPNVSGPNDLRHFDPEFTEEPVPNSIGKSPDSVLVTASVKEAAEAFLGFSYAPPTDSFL
Chain of Serine/threonine-protein kinase 4 (Homo sapiens) (Q13043 whole entry): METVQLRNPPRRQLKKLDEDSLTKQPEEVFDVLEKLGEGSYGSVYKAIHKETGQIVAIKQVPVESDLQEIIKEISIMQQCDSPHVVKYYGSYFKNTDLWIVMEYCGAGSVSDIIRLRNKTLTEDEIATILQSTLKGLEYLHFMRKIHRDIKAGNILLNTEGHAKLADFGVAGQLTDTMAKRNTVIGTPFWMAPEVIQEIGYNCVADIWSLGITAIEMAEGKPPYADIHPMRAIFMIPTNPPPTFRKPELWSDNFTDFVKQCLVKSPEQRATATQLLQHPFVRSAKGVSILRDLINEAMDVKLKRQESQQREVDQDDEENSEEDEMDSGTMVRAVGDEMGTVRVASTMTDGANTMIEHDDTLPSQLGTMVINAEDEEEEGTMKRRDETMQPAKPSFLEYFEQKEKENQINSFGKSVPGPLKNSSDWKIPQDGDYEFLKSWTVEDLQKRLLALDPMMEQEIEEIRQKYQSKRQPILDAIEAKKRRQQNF
Chain of Serine/threonine-protein kinase Sgk2 (Homo sapiens) (Q9HBY8 whole entry): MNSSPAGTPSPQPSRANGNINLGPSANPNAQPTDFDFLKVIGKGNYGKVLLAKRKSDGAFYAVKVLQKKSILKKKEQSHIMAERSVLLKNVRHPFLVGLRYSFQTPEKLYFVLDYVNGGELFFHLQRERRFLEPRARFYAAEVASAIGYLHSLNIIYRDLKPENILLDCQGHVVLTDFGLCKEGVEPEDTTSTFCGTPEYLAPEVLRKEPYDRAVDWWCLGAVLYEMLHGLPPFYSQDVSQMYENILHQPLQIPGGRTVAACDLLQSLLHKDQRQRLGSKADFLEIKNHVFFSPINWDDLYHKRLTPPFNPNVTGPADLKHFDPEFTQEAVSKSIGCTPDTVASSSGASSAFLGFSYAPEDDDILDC

With Cc1cnc(Nc2ccc(F)cc2Cl)nc1-c1c[nH]c(C(=O)N[C@H](CO)c2cccc(Cl)c2)c1 the inhibition [1] was 6%, the inhibition [2] was 7% and the inhibition [3] was 15%. The inhibition [4] was 41%, the inhibition [5] was 2% and the inhibition [6] was 0%. The inhibition [7] was 3%, the half-life [8] was 4.4 h and the concentration at 4 h [9] was 488 ng/mL. The Ki [10] was 1.4 µM, the Ki [11] was > 4 µM and the Ki [12] was > 4 µM. The Ki [13] was > 4 µM, the Ki [14] was > 4 µM and the Ki [15] was > 4 µM. The Ki [16] was > 4 µM, the Ki [17] was > 4 µM and the Ki [18] was > 4 µM. For the same compound, the inhibition [19] was 0%, the inhibition [20] was 0% and the inhibition [21] was 5%. The inhibition [22] was 0%, the inhibition [23] was 25% and the inhibition [24] was 0%. The inhibition [25] was 6%, the inhibition [26] was 0% and the inhibition [27] was 3%. The inhibition [28] was 6%, the inhibition [29] was 11% and the inhibition [30] was 0%. For the same compound, the inhibition [31] was 34%, the inhibition [32] was 8% and the inhibition [33] was 18%. For the same compound, the inhibition [34] was 0%, the inhibition [35] was 9% and the inhibition [36] was 4%. For the same compound, the inhibition [37] was 6%, the inhibition [38] was 25% and the inhibition [39] was 3%. It also gave an inhibition [40] of 19%, an inhibition [41] of 12% and an inhibition [42] of 11%. For the same compound, the inhibition [43] was 14%, the inhibition [44] was 43% and the inhibition [45] was 3%. The inhibition [46] was 3%, the inhibition [47] was 3% and the inhibition [48] was 57%. It also gave a Ki [49] of 0.395 µM, a concentration at 4 h [50] of 123 ng/mL and a half-life [51] of 1.6 h. For the same compound, the bioavailability [52] was 67% and the inhibition [53] was 9%.

From ChEMBL document CHEMBL1154622, “Structure-guided design of potent and selective pyrimidylpyrrole inhibitors of extracellular signal-regulated kinase (ERK) using conformational control” (J Med Chem, 2009)
